In patent publication US20230364052A1, “COMPOSITION AND METHOD FOR TREATING AUTISM” (ZELIRA THERAPEUTICS OPERATIONS PTY LTD, priority 2017, published 2023):

system: patients with ASD diagnosis according to DSM-5; test: Retrospective review of ASD patients treated with Cannabis extracts; clinical response by CGI-I Scale; type: in vivo; conditions: 66.6% of the ASD patients, treated before Cannabis therapy
Procedure: A retrospective review of patients seen between June 2016 and March 2017 with ASD diagnosis according to DSM-5 (persistent deficits in social communication and interaction; restricted, repetitive patterns of behaviour, interests, or activities; symptoms present in the early developmental period; cause clinically significant impairment in social, occupational, or other areas of current functioning; not explained by intellectual disability nor global developmental delay) who were treated with Cannabis extracts for at least a 12-week period was completed. Demographic/clinical data, neuroimaging/EEG studies, vision, audition, genetic, and metabolic tests, parental/school/neuropsychological reports were reviewed.
The patients were administered with the cannabinoids sublingually (sublingual drops or “rice grain” method—see Example 1) twice daily (BID) for the duration of their treatment. The Cannabis extracts were obtained from the Moby Dick, Sharck, Durga mata or Nebula strains of Cannabis. For 10 out of the 21 patients included in the study, the total daily dosage of CBD and THC (measured by HPLC) and CBD:THC ratio were calculated and discussed further below.
The initial severity of symptoms presenting in the patients was assessed according to the criteria provided in the DSM-5, and are shown in FIG. 3.
The selected patients consisted of twenty (20) children and 1 adult (Mean age: 9 years, 10 month (range: 26 mo-22 yo), 15 males).
Mean follow-up after starting Cannabis therapy was 7.6 mo (range: 3-12 months). According to Cannabis strain, 71.5% of patients received balanced CBD:THC extracts; 19.0% high-CBD (e.g. Table 3; Formulations 1-3), and 9.5% high-THC extracts (e.g. Table 3; Formulation 6). The administered daily dose of CBD and THC was measured in 10 patients; 9 of them received […] and one high-THC extracts (Tables 2 and 3).

Compound | response to previous treatment
Cc1nc2n(c(=O)c1CCN1CCC(c3noc4cc(F)ccc34)CC1)CCCC2 [risperidone] | without good response and/or with undesirable adverse events
O=C1CCc2ccc(OCCCCN3CCN(c4cccc(Cl)c4Cl)CC3)cc2N1 [aripiprazole] | without good response and/or with undesirable adverse events
OCCOCCN1CCN(C2=Nc3ccccc3Sc3ccccc32)CC1 [quetiapine] | without good response and/or with undesirable adverse events
COC(=O)C(c1ccccc1)C1CCCCN1 (stereo not shown) [methylphenidate] | without good response and/or with undesirable adverse events
